Results reported in US9023789B2, “Amylin analogs and pharmaceutical compositions thereof” (Novo Nordisk A/S, priority 2012, dated 2015).
Numbered stars: 1 amine (or outer) side, 2 acyl side, 3 side chain; on linkers, the order of the positions; unused ones are H or OH. Bridge positions count the residues as written; N and C are the ends. Side chains are listed from the residue outwards. Peptide text beside a SMILES is read from it. * marks the point of attachment. C20 diacid = O=C(O)CCCCCCCCCCCCCCCCCCC(=O)*; γGlu = O=C(O)[C@H](CCC(=O)[*:2])N[*:1]; AEEA = NCCOCCOCC(=O)O

Tests used:
[1] = molecular target: T1, human amylin receptor (membranes from Amylin 3(a)/CRE-luc cells) (Homo sapiens, UniProt O60896+P30988); assay: ASSAY (V) binding to the human amylin receptor (SPA, 125I-rat amylin);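 also: competition binding of cell membranes (35 ng/µL) mixed with SPA beads in 384-well plates at 40 µL total volume, read by scintillation counting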
T1 construct: expressed in transfected cells
T1 sequence (P30988 25-474): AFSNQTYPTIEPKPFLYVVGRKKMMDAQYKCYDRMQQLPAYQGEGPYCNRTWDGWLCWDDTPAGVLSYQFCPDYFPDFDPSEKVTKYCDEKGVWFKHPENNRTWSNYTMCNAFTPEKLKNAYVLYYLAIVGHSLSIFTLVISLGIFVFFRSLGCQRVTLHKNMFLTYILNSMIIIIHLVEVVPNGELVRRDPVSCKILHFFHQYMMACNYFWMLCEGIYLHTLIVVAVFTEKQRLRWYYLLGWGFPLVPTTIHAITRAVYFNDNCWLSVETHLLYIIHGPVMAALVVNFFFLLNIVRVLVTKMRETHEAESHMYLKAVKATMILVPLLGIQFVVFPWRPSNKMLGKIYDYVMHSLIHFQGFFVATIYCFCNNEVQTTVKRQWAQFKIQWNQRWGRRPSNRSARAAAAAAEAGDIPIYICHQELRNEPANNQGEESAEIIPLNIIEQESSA
T1 sequence (O60896 24-148 partner): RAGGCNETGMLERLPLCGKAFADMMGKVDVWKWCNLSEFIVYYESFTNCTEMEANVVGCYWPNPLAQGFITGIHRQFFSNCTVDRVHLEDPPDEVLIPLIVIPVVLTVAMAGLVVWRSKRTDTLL

[2] = ASSAY (III) ThT fibrillation assay for physical stability; format: physicochemical
Outline: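 Formulations with 1 μM ThT, pH adjusted as required, incubated at 37 °C with 960 rpm orbital shaking; fluorescence (ex 444/em 485 nm) read every 20 min. Fibrillation reported as mean ThT fluorescence ± SD of 4–8 replicates at time points; polypeptide concentration measured by reverse-phase HPLC before and after, post-centrifugation.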

[3] = Table 5, selectivity, hCTR bind IC50 / hAmylin-R bind IC50
[4] = Table 5a, selectivity, hCTR bind IC50 / hAmylin-R bind IC50
[5] = Table 5b, selectivity, hCTR bind IC50 / hAmylin-R bind IC50
[6] = Table 5c, selectivity, hCTR bind IC50 / hAmylin-R bind IC50
[7] = Table 7, human binding selectivity, included for comparison
[8] = Table 7a (preferred compounds), human binding selectivity, included for comparison
[9] = ratio of human calcitonin receptor binding IC50 to human amylin receptor binding IC50

Structure (SMILES) | Ratio hCT/hAmylin binding [1, 3] | Ratio hCT/hAmylin binding [1, 4] | Ratio hCT/hAmylin binding [1, 5] | Ratio hCT/hAmylin binding [1, 6] | Ratio hCT/hAmylin binding [1, 7] | Ratio hCT/hAmylin binding [1, 8] | Ratio hCT/hAmylin binding [1, 9] | ThT pH 4.0 lag time (h) [2] [h]
CC[C@H](C)[C@H](NC(=O)[C@H](C)NC(=O)CNC(=O)[C@H](Cc1ccccc1)NC(=O)[C@H](CC(N)=O)NC(=O)[C@@H]1CCCN1C(=O)[C@H](CO)NC(=O)[C@H](CO)NC(=O)[C@H](Cc1c[nH]cn1)NC(=O)[C@H](CCCNC(=N)N)NC(=O)[C@H](CC(C)C)NC(=O)[C@H](Cc1ccccc1)NC(=O)[C@H](CCCNC(=N)N)NC(=O)[C@H](C)NC(=O)[C@H](CC(C)C)NC(=O)[C@H](CCCNC(=N)N)NC(=O)[C@H](CCC(N)=O)NC(=O)[C@@H](NC(=O)[C@H](C)NC(=O)[C@@H]1CSSC[C@H](NC(=O)[C@@H](N)CCCCNC(=O)CC[C@H](NC(=O)CCCCCCCCCCCCCCCCCCC(=O)O)C(=O)O)C(=O)N[C@@H](CC(N)=O)C(=O)N[C@@H]([C@@H](C)O)C(=O)N[C@@H](C)C(=O)N[C@@H]([C@@H](C)O)C(=O)N1)[C@@H](C)O)C(=O)N1CCC[C@H]1C(=O)N[C@@H](CO)C(=O)N[C@@H](CO)C(=O)N[C@H](C(=O)N1CCC[C@H]1C(=O)N[C@H](C(=O)NCC(=O)N[C@@H](CO)C(=O)N[C@@H](CC(N)=O)C(=O)N[C@H](C(=O)N[C@@H](Cc1ccc(O)cc1)C(N)=O)[C@@H](C)O)C(C)C)[C@@H](C)O [Example 63] (H-K([γGlu-C20 diacid])CNTATCATQRLARFLRHSSPNFGAIPSSTPVGSNTY-NH2; disulfide 2-7 (inferred); N-terminus assumed) | 157.1 | 157.1 | 157.1 | 157.1 | 157.1 | 157.1 | 157.1 | 45
CC[C@H](C)[C@H](NC(=O)[C@H](C)NC(=O)CNC(=O)[C@H](Cc1ccccc1)NC(=O)[C@H](CC(N)=O)NC(=O)[C@@H]1CCCN1C(=O)[C@H](CO)NC(=O)[C@H](CO)NC(=O)[C@H](Cc1c[nH]cn1)NC(=O)[C@H](CCCNC(=N)N)NC(=O)[C@H](CC(C)C)NC(=O)[C@H](Cc1ccccc1)NC(=O)[C@H](CC(N)=O)NC(=O)[C@H](C)NC(=O)[C@H](CC(C)C)NC(=O)[C@H](CCCNC(=N)N)NC(=O)[C@H](CCC(N)=O)NC(=O)[C@@H](NC(=O)[C@H](C)NC(=O)[C@@H]1CSSC[C@H](NC(=O)[C@@H](N)CCCCNC(=O)COCCOCCNC(=O)CC[C@H](NC(=O)CCCCCCCCCCCCCCCCCCC(=O)O)C(=O)O)C(=O)N[C@@H](CC(N)=O)C(=O)N[C@@H]([C@@H](C)O)C(=O)N[C@@H](C)C(=O)N[C@@H]([C@@H](C)O)C(=O)N1)[C@@H](C)O)C(=O)N1CCC[C@H]1C(=O)N1CCC[C@H]1C(=O)N[C@@H](CO)C(=O)N[C@H](C(=O)N1CCC[C@H]1C(=O)N[C@H](C(=O)NCC(=O)N[C@@H](CO)C(=O)N[C@@H](CC(N)=O)C(=O)N[C@H](C(=O)N[C@@H](Cc1ccc(O)cc1)C(N)=O)[C@@H](C)O)C(C)C)[C@@H](C)O [Example 53] (H-K([AEEA-γGlu-C20 diacid])CNTATCATQRLANFLRHSSPNFGAIPPSTPVGSNTY-NH2; disulfide 2-7; N-terminus assumed) | 103.5 | 103.5 | 103.5 | 103.5 | 103.5 | 103.5 | 103.5 | 18
CC[C@H](C)[C@H](NC(=O)[C@H](C)NC(=O)CNC(=O)[C@H](Cc1ccccc1)NC(=O)[C@H](CC(N)=O)NC(=O)[C@@H]1CCCN1C(=O)[C@H](CO)NC(=O)[C@H](CO)NC(=O)[C@H](Cc1c[nH]cn1)NC(=O)[C@H](CCCNC(=N)N)NC(=O)[C@H](CC(C)C)NC(=O)[C@H](Cc1ccccc1)NC(=O)[C@H](CCC(=O)O)NC(=O)[C@H](C)NC(=O)[C@H](CC(C)C)NC(=O)[C@H](CCCNC(=N)N)NC(=O)[C@H](CCC(N)=O)NC(=O)[C@@H](NC(=O)[C@H](C)NC(=O)[C@@H]1CSSC[C@H](NC(=O)[C@@H](N)CCCCNC(=O)CC[C@H](NC(=O)CC[C@H](NC(=O)CCCCCCCCCCCCCCCCCCC(=O)O)C(=O)O)C(=O)O)C(=O)N[C@@H](CC(N)=O)C(=O)N[C@@H]([C@@H](C)O)C(=O)N[C@@H](C)C(=O)N[C@@H]([C@@H](C)O)C(=O)N1)[C@@H](C)O)C(=O)N[C@@H](CC(C)C)C(=O)N[C@@H](CO)C(=O)N[C@@H](CO)C(=O)N[C@H](C(=O)N1CCC[C@H]1C(=O)N[C@H](C(=O)NCC(=O)N1CCC[C@H]1C(=O)N[C@@H](CCC(=O)O)C(=O)N[C@H](C(=O)N[C@@H](Cc1ccc(O)cc1)C(N)=O)[C@@H](C)O)C(C)C)[C@@H](C)O [Example 121] (H-K([γGlu-γGlu-C20 diacid])CNTATCATQRLAEFLRHSSPNFGAILSSTPVGPETY-NH2; disulfide 2-7; N-terminus assumed) | 22.6 | 22.6 | 22.6 | 22.6 | 22.6 | 22.6 | 22.6 | 3

Other lines, results leading:

Ratio hCT/hAmylin binding [1, 3] | Ratio hCT/hAmylin binding [1, 4] | Ratio hCT/hAmylin binding [1, 5] | Ratio hCT/hAmylin binding [1, 6] | Ratio hCT/hAmylin binding [1, 7] | Ratio hCT/hAmylin binding [1, 8] | Ratio hCT/hAmylin binding [1, 9] | ThT pH 4.0 lag time (h) [2] [h] | Structure (SMILES)
101.0 | 101.0 | 101.0 | 101.0 | 101.0 | 101.0 | 101.0 | 16 | CC[C@H](C)[C@H](NC(=O)[C@H](C)NC(=O)CNC(=O)[C@H](Cc1ccccc1)NC(=O)[C@H](CC(N)=O)NC(=O)[C@@H]1CCCN1C(=O)[C@H](CO)NC(=O)[C@H](CO)NC(=O)[C@H](Cc1c[nH]cn1)NC(=O)[C@H](CCCNC(=N)N)NC(=O)[C@H](CC(C)C)NC(=O)[C@H](Cc1ccccc1)NC(=O)[C@H](C)NC(=O)[C@H](C)NC(=O)[C@H](CC(C)C)NC(=O)[C@H](CCCNC(=N)N)NC(=O)[C@H](CCC(N)=O)NC(=O)[C@@H](NC(=O)[C@H](C)NC(=O)[C@@H]1CSSC[C@H](NC(=O)[C@@H](N)CCCCNC(=O)CC[C@H](NC(=O)CCCCCCCCCCCCCCCCCCC(=O)O)C(=O)O)C(=O)N[C@@H](CC(N)=O)C(=O)N[C@@H]([C@@H](C)O)C(=O)N[C@@H](C)C(=O)N[C@@H]([C@@H](C)O)C(=O)N1)[C@@H](C)O)C(=O)N1CCC[C@H]1C(=O)N[C@@H](CO)C(=O)N[C@@H](CO)C(=O)N[C@H](C(=O)N[C@@H](CC(N)=O)C(=O)N[C@H](C(=O)NCC(=O)N[C@@H](Cc1c[nH]cn1)C(=O)N[C@@H](CC(N)=O)C(=O)N[C@H](C(=O)N[C@@H](Cc1ccc(O)cc1)C(N)=O)[C@@H](C)O)C(C)C)[C@@H](C)O [Example 93] (H-K([γGlu-C20 diacid])CNTATCATQRLAAFLRHSSPNFGAIPSSTNVGHNTY-NH2; disulfide 2-7; N-terminus assumed)
109.4 | 109.4 | 109.4 | 109.4 | 109.4 | 109.4 | 109.4 | 38 | CC[C@H](C)[C@H](NC(=O)[C@H](C)NC(=O)CNC(=O)[C@H](Cc1ccccc1)NC(=O)[C@H](CC(N)=O)NC(=O)[C@@H]1CCCN1C(=O)[C@H](CO)NC(=O)[C@H](CO)NC(=O)[C@H](Cc1c[nH]cn1)NC(=O)[C@H](CCCNC(=N)N)NC(=O)[C@H](CC(C)C)NC(=O)[C@H](Cc1ccccc1)NC(=O)[C@H](CC(N)=O)NC(=O)[C@H](C)NC(=O)[C@H](CC(C)C)NC(=O)[C@H](CCCNC(=N)N)NC(=O)[C@H](CCC(N)=O)NC(=O)[C@@H](NC(=O)[C@H](C)NC(=O)[C@@H]1CSSC[C@H](NC(=O)[C@@H](N)CCCCNC(=O)COCCOCCNC(=O)CC[C@H](NC(=O)CCCCCCCCCCCCCCCCCCC(=O)O)C(=O)O)C(=O)N[C@@H](CC(N)=O)C(=O)N[C@@H]([C@@H](C)O)C(=O)N[C@@H](C)C(=O)N[C@@H]([C@@H](C)O)C(=O)N1)[C@@H](C)O)C(=O)N1CCC[C@H]1C(=O)N[C@@H](CO)C(=O)N[C@@H](CO)C(=O)N[C@H](C(=O)N[C@@H](CC(N)=O)C(=O)N[C@H](C(=O)NCC(=O)N1CCC[C@H]1C(=O)N[C@@H](Cc1c[nH]cn1)C(=O)N[C@H](C(=O)N[C@@H](Cc1ccc(O)cc1)C(N)=O)[C@@H](C)O)C(C)C)[C@@H](C)O [Example 58] (H-K([AEEA-γGlu-C20 diacid])CNTATCATQRLANFLRHSSPNFGAIPSSTNVGPHTY-NH2; disulfide 2-7)
